Test results reported in patent US20070060501A1 (priority 2005, published 2007).
Values joined by “and” are separate entries in the source; they are usually repeats but may differ in a detail not shown here. Equal entries are not always repeated. “Also recorded” adds a separate entry of the source. Where two headings read alike, the source gives them in different places.

Assays:
spinal alpha-2 receptors = format: in vivo, rat
Sprague-Dawley rats [1] = test: Effect on analgesia produced by a single spinal dose of morphine (tail flick and paw pressure tests); format: in vivo, rat
Sprague-Dawley rats [2] = test: Acute tolerance to spinal morphine: three successive intrathecal injections at 90 minute intervals, cumulative morphine dose-response curves 24 hours later (tail flick and paw pressure tests); format: in vivo, rat; conditions: for development of acute tolerance to morphine: ultra-low dose administration, intrathecal
mice = conditions: cited from earlier work
mouse = conditions: in vivo; cited from earlier work
Sprague-Dawley rats [3] = test: Chronic tolerance to spinal morphine: daily intrathecal injection for 5 days, cumulative dose-response curves on day 6 (tail flick and paw pressure tests); format: in vivo, rat
Sprague-Dawley rats [4] = test: Reversal of pre-existing morphine analgesic tolerance by ultra-low dose atipemazole (tail flick and paw pressure tests)
[5] = mirtazapine 2 μg with clonidine 13.3 μg intrathecal
[6] = mirtazapine 0.02 ng co-injection with morphine 15 μg x 3
[7] = mirtazapine 0.02 ng with morphine 15 μg x 3
[8] = single mirtazapine exposure 0.02 ng 30 minutes prior to repeated morphine
[9] = idazoxan 0.08 ng with morphine 15 μg intrathecal
[10] = idazoxan ultra-low doses (0.008, 0.016, 0.08 ng) with morphine 15 μg x 3
[11] = group receiving repeated morphine injections (15 μg x 3) vs saline-treated control
[12] = saline-treated control group, cumulative intrathecal dose-response curve 24 hours after treatment
[13] = group receiving chronic morphine alone (15 μg for 10 days)
[14] = group receiving morphine (15 μg for 10 days) with atipemazole 0.8 ng from day 6 for 5 days

CN1CCN2c3ncccc3Cc3ccccc3C2C1 (centres unmarked) [mirtazapine]
effect on clonidine analgesia, paw pressure test (spinal alpha-2 receptors; 10 μg with clonidine 13.3 μg intrathecal (FIG. 28B)): almost abolished
effect on clonidine analgesia, paw pressure test (spinal alpha-2 receptors; [5]): almost abolished
effect on peak clonidine analgesia, tail flick test (spinal alpha-2 receptors; [5]): decreased significantly
effect on peak morphine analgesia, tail flick test (Sprague-Dawley rats [1]; mirtazapine 0.2 ng with morphine 15 μg intrathecal): reduced the peak morphine analgesia
effect on morphine analgesia, paw pressure test (Sprague-Dawley rats [1]; mirtazapine 0.02 and 0.2 ng with morphine 15 μg intrathecal): significantly extended morphine analgesia
effect on duration of morphine analgesia, tail flick test (Sprague-Dawley rats [1]; mirtazapine 0.02 and 0.2 ng with morphine 15 μg intrathecal, particularly at 0.02 ng): extended morphine analgesia
effect on the increase in morphine ED50, paw pressure test (Sprague-Dawley rats [2]; [6]): completely prevented the increase in ED50
effect on the increase in morphine ED50, tail flick test (Sprague-Dawley rats [2]; [6]): partially prevented the increase in ED50
effect on peak morphine analgesia, tail flick test (Sprague-Dawley rats [2]; [7]): reduced the peak morphine analgesia
effect on the decline of morphine analgesia, paw pressure test (Sprague-Dawley rats [2]; [7]): arrested the decline of the analgesic effect
effect on the decline of morphine analgesia, tail flick test (Sprague-Dawley rats [2]; [7]): less effective at arresting the decline
effect on the shift of the morphine dose-response curve, paw pressure test (Sprague-Dawley rats [2]; [7]): prevented the rightward shift
morphine dose-response curves of morphine and morphine-mirtazapine groups, tail flick test (Sprague-Dawley rats [2]; [7]): showed an overlap at upper dose range of the opioid agonist
prevention of the right shift of the morphine dose response curve, paw pressure vs tail flick test (Sprague-Dawley rats [2]; single mirtazapine dose 0.02 ng 30 minutes prior to morphine 15 μg x 3): more effective in the paw pressure test at preventing the right shift
effect on the increase in morphine ED50, paw pressure test (Sprague-Dawley rats [2]; [8]): completely prevented the increase in ED50
effect on the increase in morphine ED50, tail flick test (Sprague-Dawley rats [2]; [8]): partially prevented the increase in ED50
development of acute tolerance to morphine (Sprague-Dawley rats [2]): very effectively inhibit

COc1cc2nc(N3CCN(C(=O)c4ccco4)CC3)nc(N)c2cc1OC [prazoin]
development of tolerance to morphine analgesia (mice): suppress the development of tolerance

C=CCN1CC[C@]23c4c5ccc(O)c4O[C@H]2C(=O)CC[C@@]3(O)[C@H]1C5 [naloxone]
effect on alpha-2 receptor agonist analgesia (mouse): does not affect

CC(C)NCC(O)COc1cccc2ccccc12 (centres unmarked) [propranolol]
development of tolerance to morphine analgesia (mice): suppress the development of tolerance

c1ccc2c(c1)OCC(C1=NCCN1)O2 (centres unmarked) [idazoxan]
effect on peak clonidine analgesia, tail flick test (spinal alpha-2 receptors; idazoxan 10 μg with clonidine 13.3 μg intrathecal): decreased significantly
effect on morphine analgesia, both tail flick and paw pressure tests (Sprague-Dawley rats [1]; [9]): significantly extended morphine analgesia
effect on peak morphine analgesia, paw pressure test (Sprague-Dawley rats [1]; [9]): augmented peak morphine analgesia
effect on the shift of the morphine dose-response curve, both tail flick and paw pressure tests (Sprague-Dawley rats [2]; idazoxan 0.008 ng, 0.016 ng with morphine 15 μg x 3): prevented the rightward shift
effect on the increase in morphine ED50, both tail flick and paw pressure tests (Sprague-Dawley rats [2]; idazoxan 0.008, 0.016 and 0.08 ng co-injection with morphine 15 μg x 3): prevented the increase in ED50
analgesic response to repeated administration alone (Sprague-Dawley rats [2]; idazoxan alone at 0.008 and 0.016 ng, injected at 90 minute intervals): no significant analgesic response
effect on peak morphine analgesia, tail flick test (Sprague-Dawley rats [2]; idazoxan lowest dose 0.008 ng with morphine 15 μg x 3): reduced the peak morphine analgesia
effect on the decline of morphine analgesia, paw pressure test (Sprague-Dawley rats [2]; [10]): arrested the decline of the analgesic effect
effect on the decline of morphine analgesia, tail flick test (Sprague-Dawley rats [2]; [10]): less effective at arresting the decline
development of acute tolerance to morphine (Sprague-Dawley rats [2]): very effectively inhibit

Cc1ccc(N(CC2=NCCN2)c2cccc(O)c2)cc1 [phentolamine]
development of tolerance to morphine analgesia (mice): suppress the development of tolerance

Clc1cccc(Cl)c1N=C1NCCN1 [clonidine]
analgesic response to clonidine, paw pressure test (spinal alpha-2 receptors; rat, in vivo): lesser effect
analgesic response to clonidine, tail flick test (spinal alpha-2 receptors; rat, in vivo): maximal analgesic response

COCCc1ccc(OCC(O)CNC(C)C)cc1 (centres unmarked) [metoprolol]
development of tolerance to morphine analgesia (mice): suppress the development of tolerance

CN1CC[C@]23c4c5ccc(O)c4O[C@H]2[C@@H](O)C=C[C@H]3[C@H]1C5 [morphine]
time of peak analgesia after a single dose of morphine (Sprague-Dawley rats [1]; morphine 15 μg intrathecal, tail flick and paw pressure tests): 30 min
decline of the analgesic effect of morphine observed after the first injection, at the end of the 240 minute test period (Sprague-Dawley rats [2]; 3 successive doses of morphine 15 μg intrathecal at 90 minute intervals): ~80%
increase in morphine ED50, paw pressure test (Sprague-Dawley rats [2]; [11]): 4 fold
increase in morphine ED50, tail flick test (Sprague-Dawley rats [2]; [11]): ~5 fold
cumulative morphine dose-response curve 24 hours after repeated morphine injections (Sprague-Dawley rats [2]; morphine 15 μg x 3 at 90 minute intervals, relative to saline treatment): shifted to the right; also recorded: parallel right shift
ED50 value of morphine, paw pressure test (Sprague-Dawley rats [2]; [12]): ~7 µg and ~8 µg
ED50 value of morphine, tail flick test (Sprague-Dawley rats [2]; [12]): ~5 µg
increase in morphine ED50 values, both tests (Sprague-Dawley rats [3]; chronic treatment with morphine 15 μg/day for 5 days): ~8 fold
ED50 values for morphine in the control group (Sprague-Dawley rats [3]; group that had received atipemazole alone (0.8 ng/day) for 5 days, day 6, tail flick and paw pressure tests): approximately 5 μg
time course of analgesic response on day 5 (Sprague-Dawley rats [3]; morphine 15 μg alone at conclusion of chronic treatment): drastically reduced
analgesic response to morphine on day 1 (Sprague-Dawley rats [3]; morphine 15 μg intrathecal, 30 minutes after administration): maximal level
effect of morphine at 60 minutes post injection, both tests (Sprague-Dawley rats [3]; morphine 15 μg/day alone): very much reduced
cumulative morphine dose-response curve on day 6 after chronic morphine treatment (Sprague-Dawley rats [3]; morphine 15 μg/day for 5 days): rightward shift
magnitude of morphine effect with daily drug administration (Sprague-Dawley rats [3]; morphine 15 μg/day intrathecal for 5 days, 30 minutes after administration): progressively declined towards baseline value by day 5
morphine ED50, paw pressure test (Sprague-Dawley rats [4]; [13]): ~48 µg
morphine ED50, tail flick test (Sprague-Dawley rats [4]; [13]): ~47 µg
morphine ED50, paw pressure test (Sprague-Dawley rats [4]; [14]): ~8 µg
morphine ED50, tail flick test (Sprague-Dawley rats [4]; [14]): ~6 µg
acute morphine dose-response curve relative to morphine and atipemazole group (Sprague-Dawley rats [4]; morphine 15 μg alone for 10 days, day 11): displaced to the right
